From patent publication US11197859B2 (AUTIFONY THERAPEUTICS LIMITED, priority 2010, dated 2021) come the findings set out here.

One series relates to Male CD-1 mice. Nature of the series: Psychostimulant (amphetamine)-induced hyperactivity in mice. The settings on record: AMPH 2 mg/kg i.p. + compound 10 mg/kg p.o. 30 min before; over 60 min; mean ± sem.
Series [1] in a line: Blood concentrations in satellite animals of the electroshock seizure study. The format is in vivo. The settings on record: CD, whole blood, po, rat, 2 hours after dosing. How it is done: (§1) Testing involved determining the threshold for tonic hindlimb extensor seizures using a Hugo Sachs Electronik stimulator which delivers a constant current of 0.3 second duration, 50 Hz, sinewave form, fully adjustable between 1 and 300 mA. Stimuli were delivered via corneal electrodes (Stean T O, Atkins A R, Heidbreder C A, Quinn L P, Trail B K, Upton N. (2005) Br J Pharmacol. 144(5):628-35). Seizure threshold was determined using the ‘up and down’ method of Kimball et al. (1957)(Kimball A W, Burnett W T Jr, Doherty D G. (1957) Radiat Res. 7(1):1-12). The first animal tested in each group was stimulated with a current that might be expected to be close to the threshold for induction of a seizure. If a tonic seizure was not induced, then the next animal in the group received a stimulus 5 mA higher. If a tonic seizure was induced, then the next animal received a stimulus 5 mA lower. This is repeated for all animals within the control (vehicle) group. In the case of groups treated with a test compound steps of 5 to 10 mA were used. At the end of the study, blood samples were taken for analysis of the drug concentrations in this compartment (n=4/group).
(§2) All doses were calculated as base. Sodium valproate was suspended in Methocell 1% (w/v) and dosed via the oral (p.o.) route at 5 mL/kg 1 hour before test. Reference Example RE1 was dissolved in DMSO and then suspended in Methocell 1% (w/v) to a final DMSO concentration of 5% (v/v). Reference Example RE1 was then dosed p.o. at 5 mL/kg 2 hours before test.
Blood concentrations of Reference Example RE1 measured in satellite animals 2 hours after dosing were 5.3 and 9.1 μg/mL following the doses of 30 and 60 mg/kg p.o., respectively. These concentrations are equivalent to unbound concentrations in blood of 1.3 and 2.2 μM, respectively, and thus are consistent with concentrations of Reference Example RE1 that produce a significant increase in Kv3-mediated currents observed in the in vitro recombinant human Kv3 electrophysiology assay, described above.

The subject of series [2] is parvalbumin-positive interneurons in the somatosensory cortex. In words: Firing of parvalbumin-positive interneurons in somatosensory cortex slices, in vitro. The settings on record: for frequency of action potential firing in response to step currents: vs TEA alone, p<0.05. The series is classed as cell-based, mouse.
A further series deals with MNTB neurons. Nature of the series: High-voltage activated potassium currents in MNTB neurons, in vitro. The settings on record: 10 microM in continuing presence of TEA (1 mM); effect on the TEA-induced reduction. The format is cell-based, mouse. How it is done:
Male CBA/Ca mice (aged 12-16 days) were used in these experiments (in accordance with the UK Animals Scientific Procedures Act, 1986). Brain slices containing the medial nucleus of the trapezoid body (MNTB) were prepared as described previously (Brew and Forsythe, 2005).
Chemicals and reagents were purchased from Sigma, (Poole, UK) unless otherwise noted. Reference Example RE1 was dissolved in DMSO and diluted in ACSF to the required concentration.
Recordings from identified MNTB neurons were conducted as previously described (Brew and Forsythe, 2005). Slices was placed in a superfusion chamber on an inverted microscope stage and continuously perfused with gassed (95% O2-5% CO2) ACSF at a rate of 1 ml min-1 at room temperature. Whole-cell recordings were made from visually identified MNTB neurons using an […] amplifier (Molecular Devices, Union City, Calif., USA). Patch solution comprised (in mM) potassium gluconate (97.5), KCl (32.5), Hepes (40), EGTA (5), MgCl2 (1), Na2phosphocreatin (5), pH 7.2 with KOH. Pipettes had resistances of 3-5 MΩ and series resistances were 6-10 MΩ (compensated by 70%, 10 μs lag). Access resistance was frequently monitored and the recording discarded if increases were more than 2 MΩ. […]

Another series concerns Male CD rats. In words: Electroshock seizure model in rats. The format is in vivo, rat. The settings on record: 2 hours before test. How it is done:
Male CD rats (85-130 g) were supplied by Charles River, Italy.
as §1, §2
Induction of seizure is measured as an all-or-nothing effect scored as either present (+) or absent (0) for each animal. […] Drug effects were calculated as the % change in CC50. Significant differences between drug-treated animals and appropriate vehicle treated groups were assessed according to the methods of Litchfield and Wilcoxon (1949).

Another series has as its system Adult male CD rats. Nature of the series: Assessment of physiological sleep in the rat (EEG/EMG telemetry). The series is classed as in vivo. The settings on record: 60 mg/kg oral at CT18, 5 hour period following dosing. How it is done: Adult male CD rats (C. River, Italy) were implanted with telemetric probes and housed singly, under controlled condition (temperature 18-20° C.; relative humidity 45-50%; 12 hours light-dark cycle, lights on at 3 p.m., designated Circadian Time (CT) 0) with free access to food and water.
Reference Example RE1 was formulated in tween (0.1% v/v) and HPMC (0.5% v/v) and was administered orally at doses of 10, 30 and 60 mg/kg (vol. 2 ml/kg) at CT18 (6 hours before lights on). The electroencephalogram (EEG) and electromyogram (EMG) were recorded continuously, starting immediately after administration, using telemetric apparatus (DSI Dataquest® A.R.T. system). EEG and EMG recordings were analysed to evaluate sleep patterns using sleepSign® (Kissei Comtec Co.). Statistical analyses (1-way Anova followed by a Dunnett's test) was performed using Statistica-8 software.

Molecules are shown by their SMILES. Read-outs that look alike come from different tables or passages of the source.

For `CC[C@H]1NC(=O)N(c2ccc(Oc3ccc(C)c(OC)c3)nc2)C1=O` [RE1, (5R)-5-ethyl-3-(6-{[4-methyl-3-(methyloxy)phenyl]oxy}-3-pyridinyl)-2,4-imidazolidinedione], in the series on Male CD-1 mice, the “Total Distance Travelled (cm)” value was 15267 ± 3166 cm. Besides, the concentration at 2 h in series [1] (30 mg/kg p.o., read-out: blood concentration) was found to be 5300 ng/mL; in series [1] (30 mg/kg p.o., read-out: unbound concentration in blood), 1300 nM; in series [1] (60 mg/kg p.o., read-out: blood concentration) it was 9100 ng/mL; in series [1] (60 mg/kg p.o., read-out: unbound concentration in blood), 2200 nM. Also, the “decrease of mean action potential half-width” value in series [2] (TEA (0.5 mM) + compound 1 μM vs TEA (0.5 mM) only, p<0.05, n=9) came to 24%; in series [2] (TEA (0.5 mM) + compound 10 μM vs TEA (0.5 mM) only, p<0.01, n=5) it was 36%. Also, the “frequency of action potential firing in response to step currents” value in series [2] (TEA (0.5 mM) + compound 1 μM, n=9) was “significantly reversed”; in series [2] (TEA (0.5 mM) + compound 10 μM, n=5), “significantly reversed”. Also, the “amplitude of outward high voltage-activated potassium currents evoked by voltage steps to +40 mV” value with MNTB neurons is on record as “reversed”. The “increase in seizure threshold (% change in CC50)” value is listed as 91% in the series on Male CD rats (30 mg/kg p.o.) and 218% with Male CD rats (60 mg/kg p.o.). The “time spent in REM sleep” value in the series on Adult male CD rats is listed as “did not affect”. Also, in the series on Adult male CD rats (p<0.05, n=8), the “time spent in non-REM sleep” value is “significantly increased”. The total sleep time result with Adult male CD rats (p<0.05, n=8) was “significantly increased”.
